From patent publication US20260083722A1, “BIFUNCTIONAL DEGRADERS COMPRISING ELECTROPHILIC PROTACS THAT ENGAGE DCAF1 AND PHARMACEUTICAL COMPOSITIONS COMPRISING THE SAME” (THE SCRIPPS RESEARCH INSTITUTE, priority 2022, published 2026)
Where a SMILES comes first, the peptide text is derived from it. The star is where a group is joined. Cbz = O=C(OCc1ccccc1)*

Key:
HA-FKBP12 = target: T1, HA-FKBP12 (Homo sapiens, UniProt P62942); test: HA-FKBP12 abundance by Western blotting in transfected HEK293T cells; assay type: cell-based; conditions: for quantity of HA-FKBP12 and FLAG-DCAF1 in inhibitor-treated cells: HEK293T co-expressing HA-FKBP12 and FLAG-DCAF1
T1 construct: expressed in transfected cells; host or cells: HEK293T
T1 sequence (P62942 whole entry): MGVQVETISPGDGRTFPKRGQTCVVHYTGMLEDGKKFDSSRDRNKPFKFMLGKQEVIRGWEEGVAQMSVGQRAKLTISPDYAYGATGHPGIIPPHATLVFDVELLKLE
From the text: (A) Left, western blots showing concentration-dependent effects of YT47R (upper) and YT41R (lower) on FKBP12 abundance in HEK293T cells expressing HA-FBKP12 with or without co-expression of FLAG-DCAF1. Right, quantification of HA-FKBP12 abundance in the indicated experimental groups. (B) Left, western blots showing effects of YT47R versus YT47S (upper) and YT41R versus YT41S (lower) on FKBP12 abundance in HEK293T cells co-expressing HA-FBKP12 and FLAG-DCAF1. Right, quantification of HA-FKBP12 abundance in the indicated experimental groups. (C) Western blots showing effects of YT47R (left blots) and YT41R (right blots) on FKBP12 abundance in HEK293T cells co-expressing HA-FBKP12 and either FLAG-DCAF1-WT or FLAG-DCAF1-C1113A mutant. Quantification of HA-FKBP12 abundance in the indicated experimental groups is shown in the adjacent bar graphs. For (A-C), FKBP12 abundance was determined at 24 h post-treatment with compounds, and data are mean values±SEM for three independent experiments. Statistical significance was calculated with unpaired two-tailed Student's t-tests comparing YT41R/YT47R- and DMSO-treated cells. ***P<0.001, ****P<0.0001.
(A) Left, western blots showing effects of proteasome (MG132) and Neddylation (MLN4924) inhibitors (1 h pre-treatment) on YT47R- and YT41R-dependent degradation of FKBP12 in HEK293T cells co-expressing HA-FBKP12 and FLAG-DCAF1. FKBP12 abundance was determined at 24 h post-treatment with YT47R or YT41R. Right, quantification of HA-FKBP12 abundance in the indicated experimental groups. (B) Left, western blots showing effects of the FKBP12 ligand SLF (20 μM) or DCAF1 ligand MY-11B (1 h pre-treatment with 20 μM SLF or 5 μM MY-11B) on YT47R- and YT41R-dependent degradation of FKBP12 in HEK293T cells co-expressing HA-FBKP12 and FLAG-DCAF1. FKBP12 abundance was determined at 24 h post-treatment with YT47R or YT41R. Right, quantification of HA-FKBP12 abundance in the indicated experimental groups. (C) Left, western blots showing effects of MY-11A or MY-11B (5 μM, 1 h pre-treatment) on YT47R- and YT41R-dependent degradation of FKBP12 in HEK293T cells co-expressing HA-FBKP12 and FLAG-DCAF1. FKBP12 abundance was determined at 24 h post-treatment with YT47R or YT41R. Right, quantification of HA-FKBP12 abundance in the indicated experimental groups. For (A-C), data are mean values±SEM for three-five independent experiments. Statistical significance was calculated with unpaired two-tailed Student's t-tests comparing YT41R/YT47R- and DMSO-treated cells. ****P<0.0001.
Figure S3. Concentration-dependent degradation of FKBP12 by DCAF1-directed electrophilic PROTACs. Top, western blots showing concentration-dependent effects of YT47R and YT41R on FKBP12 abundance in HEK293T cells co-expressing HA-FBKP12 and FLAG-DCAF1. Data are mean values±SEM for four independent experiments. Statistical significance was calculated with unpaired two-tailed Student's t-tests comparing YT41R/YT47R- and DMSO-treated cells. *P<0.1, **P<0.01, ***P<0.001, ****P<0.0001.
Figure S4. Time-dependent degradation of FKBP12 by DCAF1-directed electrophilic PROTACs. Top, western blots showing time-dependent effects of YT47R and YT41R (2 μM each) on FKBP12 abundance in HEK293T cells co-expressing HA-FBKP12 and FLAG-DCAF1. Data are mean values±SEM for four independent experiments. Statistical significance was calculated with unpaired two-tailed Student's t-tests comparing YT41R/YT47R- and DMSO-treated cells. ****P<0.0001.
We next treated HEK293T cells co-transfected with FLAG epitope-tagged full length DCAF1 (a.a.'s 1-1507) and HA (hemagglutinin) epitope-tagged FKBP12 with a concentration range of YT41R or YT47R and, after 24 h, measured HA-FKBP12 abundance by Western blotting.

DCAF1_C1113 = target: T2, DCAF1_C1113 (Homo sapiens, UniProt Q9Y4B6); test: cysteine-directed MS-ABPP (IA-DTB probe) in primary human T cells; assay type: cell-based; conditions: 3 h; for reactivity with DCAF1_C1113: 20 μM compound
T2 construct: endogenous in cells; host or cells: primary human T cells
T2 sequence (Q9Y4B6 whole entry): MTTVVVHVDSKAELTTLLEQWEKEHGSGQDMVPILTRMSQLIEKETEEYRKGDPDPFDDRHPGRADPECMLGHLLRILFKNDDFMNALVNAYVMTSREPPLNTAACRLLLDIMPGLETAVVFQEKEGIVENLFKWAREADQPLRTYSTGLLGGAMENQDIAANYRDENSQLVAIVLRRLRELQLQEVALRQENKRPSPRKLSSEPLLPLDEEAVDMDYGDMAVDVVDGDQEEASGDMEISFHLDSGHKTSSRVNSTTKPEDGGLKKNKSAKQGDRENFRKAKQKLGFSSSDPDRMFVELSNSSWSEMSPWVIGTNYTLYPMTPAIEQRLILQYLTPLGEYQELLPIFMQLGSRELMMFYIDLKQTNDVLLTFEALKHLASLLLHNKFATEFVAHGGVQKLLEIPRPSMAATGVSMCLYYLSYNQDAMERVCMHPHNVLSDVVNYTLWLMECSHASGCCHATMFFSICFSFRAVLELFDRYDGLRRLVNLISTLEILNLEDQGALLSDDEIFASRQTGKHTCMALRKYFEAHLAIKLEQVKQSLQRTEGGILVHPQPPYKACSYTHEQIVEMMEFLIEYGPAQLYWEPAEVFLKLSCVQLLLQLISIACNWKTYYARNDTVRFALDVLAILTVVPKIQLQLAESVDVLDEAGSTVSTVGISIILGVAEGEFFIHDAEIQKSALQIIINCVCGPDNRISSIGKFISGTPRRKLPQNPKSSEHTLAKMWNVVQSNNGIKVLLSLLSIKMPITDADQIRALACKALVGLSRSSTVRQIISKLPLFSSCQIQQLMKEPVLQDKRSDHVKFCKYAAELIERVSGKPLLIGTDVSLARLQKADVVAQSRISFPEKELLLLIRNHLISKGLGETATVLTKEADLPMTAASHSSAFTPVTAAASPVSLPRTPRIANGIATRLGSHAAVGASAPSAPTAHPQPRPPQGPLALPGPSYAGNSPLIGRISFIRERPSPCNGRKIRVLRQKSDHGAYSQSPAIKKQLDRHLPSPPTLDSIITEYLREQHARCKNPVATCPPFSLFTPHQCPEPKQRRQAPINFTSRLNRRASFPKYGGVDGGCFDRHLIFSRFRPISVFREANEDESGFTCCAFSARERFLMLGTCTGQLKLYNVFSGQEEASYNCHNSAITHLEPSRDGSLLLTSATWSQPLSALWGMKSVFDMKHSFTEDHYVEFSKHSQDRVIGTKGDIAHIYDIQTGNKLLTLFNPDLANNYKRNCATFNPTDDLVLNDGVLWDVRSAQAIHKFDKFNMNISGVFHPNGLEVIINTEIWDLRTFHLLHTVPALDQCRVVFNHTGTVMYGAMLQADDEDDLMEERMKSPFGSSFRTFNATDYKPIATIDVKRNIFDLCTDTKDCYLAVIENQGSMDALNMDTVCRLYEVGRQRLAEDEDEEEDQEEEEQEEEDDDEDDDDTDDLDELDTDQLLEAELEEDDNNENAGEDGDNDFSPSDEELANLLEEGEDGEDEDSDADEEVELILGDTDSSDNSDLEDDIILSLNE
Method: (A) Structures of a set of stereochemically defined azetidine acrylamides MY-1A (1), MY-1B (2), MY-3A (3), and MY-3B (4). (B) Heat map showing cysteines that were substantially engaged by azetidine acrylamides (>75% by at least one compound) in human T cells (20 μM compound, 3 h) as determined by MS-ABPP using an iodoacetamide desthiobiotin (IA-DTB) probe following previously described methods^21. Red arrow marks DCAF1_C1113. (C) MS-ABPP quantification of IA-DTB labeling of DCAF1_C1113 from T cells treated with the indicated azetidine acrylamides (20 μM, 3 h) relative to control T cells treated with DMSO. (D) MS-ABPP quantification of IA-DTB labeling of the indicated cysteines in DCAF1 from T cells treated with MY-1B (20 μM, 3 h) relative to control T cells treated with DMSO. For (B-D), data represent average values (for C and D, average values±SEM) from three independent experiments each performed with two technical replicates, where cysteines were required to have been quantified in at least two experiments for interpretation.
Guided by the principles of diversity-oriented synthesis^22, specifically the design of compounds with densely functionalized and entropically constrained sp^3-rich cores bearing one or more stereocenters, we generated a set of stereoisomeric azetidine acrylamides (FIG. 1A) and screened these compounds by cysteine-directed MS-ABPP^23-26 in primary human T cells. Across more than 10000 quantified cysteines, these experiments uncovered several azetidine acrylamide-cysteine interactions (FIG. 1B and Dataset S1), including the stereo-(FIG. 1B, C) and site-(FIG. 1D) selective engagement of C1113 on the E3 ligase substrate adaptor DCAF1. […] Other quantified cysteines in DCAF1 were unaffected by MY-1B (FIG. 1D).

[1] = target: T3, recombinant DCAF1-WT (a.a.'s 1046-1396) (Homo sapiens, UniProt Q9Y4B6); test: gel-ABPP with recombinant purified DCAF1-WT doped into HEK293T cell proteome; assay type: binding; conditions: for block of MY-11B labeling of recombinant DCAF1 by pre-treatment: 6.25-100 μM, MY-11B 25 μM, 1 h
T3 construct: form of DCAF1 containing the WD40 domain (amino acids (a.a.'s) 1046-1396); made in house
T3 sequence (Q9Y4B6 1046-1396): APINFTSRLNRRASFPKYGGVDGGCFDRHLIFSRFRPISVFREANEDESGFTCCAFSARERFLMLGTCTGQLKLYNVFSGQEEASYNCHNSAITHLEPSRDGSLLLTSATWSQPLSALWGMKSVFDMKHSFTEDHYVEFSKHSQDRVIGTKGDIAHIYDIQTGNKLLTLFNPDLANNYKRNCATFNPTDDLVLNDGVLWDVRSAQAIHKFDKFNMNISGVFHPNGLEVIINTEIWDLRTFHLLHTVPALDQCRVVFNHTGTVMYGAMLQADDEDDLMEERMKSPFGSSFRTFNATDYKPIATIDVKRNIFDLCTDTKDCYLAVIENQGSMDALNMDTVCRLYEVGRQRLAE
T3 sequence (Q16531 whole entry partner, the tested form may be a part): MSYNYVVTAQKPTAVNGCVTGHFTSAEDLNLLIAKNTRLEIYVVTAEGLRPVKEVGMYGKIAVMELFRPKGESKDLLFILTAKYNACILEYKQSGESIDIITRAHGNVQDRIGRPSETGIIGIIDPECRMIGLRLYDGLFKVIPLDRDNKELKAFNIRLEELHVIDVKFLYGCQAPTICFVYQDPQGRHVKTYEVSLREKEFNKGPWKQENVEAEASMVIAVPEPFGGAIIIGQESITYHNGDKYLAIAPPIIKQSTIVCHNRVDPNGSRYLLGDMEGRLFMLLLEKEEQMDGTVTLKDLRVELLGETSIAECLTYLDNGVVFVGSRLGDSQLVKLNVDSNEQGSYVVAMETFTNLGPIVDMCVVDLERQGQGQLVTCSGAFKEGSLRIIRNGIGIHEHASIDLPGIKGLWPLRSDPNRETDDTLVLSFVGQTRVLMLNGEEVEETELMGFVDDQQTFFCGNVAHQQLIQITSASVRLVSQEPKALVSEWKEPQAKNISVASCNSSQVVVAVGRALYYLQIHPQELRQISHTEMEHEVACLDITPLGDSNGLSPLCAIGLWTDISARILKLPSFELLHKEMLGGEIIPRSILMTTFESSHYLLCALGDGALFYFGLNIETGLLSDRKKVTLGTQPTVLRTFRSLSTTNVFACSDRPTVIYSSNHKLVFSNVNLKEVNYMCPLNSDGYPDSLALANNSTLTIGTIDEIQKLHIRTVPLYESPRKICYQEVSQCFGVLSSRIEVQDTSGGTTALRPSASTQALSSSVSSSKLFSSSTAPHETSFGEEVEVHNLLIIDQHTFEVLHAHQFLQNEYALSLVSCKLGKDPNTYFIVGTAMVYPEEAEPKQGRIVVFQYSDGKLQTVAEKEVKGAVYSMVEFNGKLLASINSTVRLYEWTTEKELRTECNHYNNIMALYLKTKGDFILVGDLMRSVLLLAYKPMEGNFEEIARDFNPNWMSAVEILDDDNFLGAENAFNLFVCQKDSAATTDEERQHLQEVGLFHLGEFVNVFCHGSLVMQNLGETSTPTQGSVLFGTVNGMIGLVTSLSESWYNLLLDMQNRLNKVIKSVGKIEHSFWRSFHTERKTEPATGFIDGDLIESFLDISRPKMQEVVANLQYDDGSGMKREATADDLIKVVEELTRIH
From the text: FIG. 2 that azetidine acrylamides stereo- and site-selectively engage recombinant DCAF1_C1113. (A) Domain map of DCAF1 with the region used for recombinant protein studies marked in a bracket (a.a.'s 1046-1396) and C1113 highlighted in red. (B) Crystal structure of a DCAF1-Vpx complex (pdb: 5AJA). DCAF1 (a.a.'s 1046-1396) is shown in cyan, Vpx is shown in yellow, and C1113, which is located at the DCAF1-Vpx interface is shown in red. (C) Structures of alkyne-modified azetidine acrylamides MY-11A (5) and MY-11B (6). (D) Gel-ABPP showing the concentration-dependent reactivity of MY-11A and MY-11B (1 h) reactivity with recombinant, purified DCAF1-WT or the DCAF1-C1113A mutant (0.06 μg/μL of DCAF1 protein per sample) doped into HEK293T cell proteome (1 μg/μL). MY-11A/B labeling of proteins was visualized by CuAAC conjugation to an azide-rhodamine tag followed by SDS-PAGE and in-gel fluorescence scanning. Results are from a single experiment representative of two independent experiments. (E) Gel-ABPP showing the concentration-dependent effects of MY-1A and MY-1B on MY-11B reactivity with DCAF1-WT. Samples were treated with MY-1A/B for 2 h, followed by MY-11B (25 μM, 1 h) and analyzed as described in (D). Left, quantification of data presented as mean values±SEM from two independent experiments. Right, representative gel-ABPP results. (D, E) Lower images are Coomassie blue-stained gels corresponding to ABPP gels shown in upper images.
(A) Structures of candidate electrophilic PROTACs YT41R (7), YT41S (8), YT47R (9), and YT47S (10). (B) Gel-ABPP showing the concentration-dependent effects of YT41R and YT47R on MY-11B reactivity with DCAF1-WT protein (0.06 μg/μL of DCAF1 protein per sample) doped into HEK293T cell proteome (1 μg/μL). Also shown are the effects of YT41S and YT47S tested at a single concentration (100 μM). Samples were treated with heterobifunctional compounds for 2 h, followed by MY-11B (25 μM, 1 h) and analyzed as described in FIG. 2D. Left, representative gel-ABPP results. Lower image is Coomassie blue-stained gel corresponding to ABPP gel shown in upper image. Right, quantification of data presented as mean values±SEM from two independent experiments.
DCAF1 is a multi-domain substrate receptor for CRL4 ligases (FIG. 2A) that has diverse physiological and disease functions, including being co-opted by the HIV-2 virus to promote degradation of the antiviral host protein SAMHD1^27-28. […] We verified the stereo- and site-selective engagement of DCAF1_C1113 by azetidine acrylamides using alkynylated analogues of MY-1A and MY-1B (MY-11A (5) and MY-11B (6), respectively; FIG. 2C). For these experiments, we doped into HEK293T cell lysates a recombinantly expressed and purified form of DCAF1 containing the WD40 domain (amino acids (a.a.'s) 1046-1396), in complex with the CRL4 adaptor protein DDB1^31, and exposed these samples to varying concentrations of MY-11A or MY-11B. After 1 h, we assessed MY-11A and MY-11B engagement of DCAF1 by copper-catalyzed azide-alkyne cycloaddition (CuAAC)^32 with an azide-rhodamine reporter tag followed by SDS-PAGE and in-gel fluorescence scanning^33. […] We used gel-ABPP to quantify an in vitro target engagement value (TE50) of approximately 25 μM (95% C.I.=13-38 μM) for MY-1B labeling of DCAF1 (FIG. 2E, left).

## CC(C)C[C@@H](C=O)NC(=O)[C@H](CC(C)C)NC(=O)[C@H](CC(C)C)NC(=O)OCc1ccccc1 [MG132, reference compound] (Cbz-Leu-Leu-Leu-aldehyde)
HA-FKBP12; 5 μM, 1 h pre-treatment followed by 24 h co-treatment with YT41R/YT47R
  effect on YT41R/YT47R-mediated degradation of HA-FKBP12: blocked
HA-FKBP12
  quantity of HA-FKBP12 and FLAG-DCAF1 in inhibitor-treated cells: increased quantities

## NS(=O)(=O)OC[C@@H]1C[C@@H](n2ccc3c(N[C@H]4CCc5ccccc54)ncnc32)C[C@@H]1O [MLN4924, reference compound]
HA-FKBP12
  quantity of HA-FKBP12 and FLAG-DCAF1 in inhibitor-treated cells: without causing alterations
HA-FKBP12; NAE inhibitor, 1 h pre-treatment
  effect on YT41R/YT47R-mediated degradation of HA-FKBP12: impaired

## C=CC(=O)N1C[C@@H](c2ccc(Br)cc2)[C@H]1C(=O)Nc1cccc2cccnc12 [MY-1A, (2S,3R)-1-acryloyl-3-(4-bromophenyl)-N-(84uinoline-8-yl) azetidine-2-carboxamide]
DCAF1_C1113
  reactivity with DCAF1_C1113: inactive
[1]; 2 h pre-treatment
  block of MY-11B labeling of recombinant DCAF1 by pre-treatment: not

## C=CC(=O)N1C[C@H](c2ccc(Br)cc2)[C@@H]1C(=O)Nc1cccc2cccnc12 [MY-1B, (2R,3S)-1-acryloyl-3-(4-bromophenyl)-N-(84uinoline-8-yl) azetidine-2-carboxamide]
DCAF1_C1113
  reactivity with DCAF1_C1113: strongest reactivity
DCAF1_C1113; 20 μM
  effect on other quantified cysteines in DCAF1: unaffected
[1]; 2 h pre-treatment
  block of MY-11B labeling of recombinant DCAF1 by pre-treatment: blocked
[1]; gel-ABPP, 2 h pre-treatment, 95% C.I.=13-38 μM, read-out: in vitro target engagement value (TE50) for labeling of DCAF1
  IC50: ~25 µM

## C=CC(=O)N1C[C@@H](c2ccc(Br)cc2)[C@@H]1C(=O)Nc1cccc2cccnc12 [MY-3B, (2S,3S)-1-acryloyl-3-(4-bromophenyl)-N-(87uinoline-8-yl) azetidine-2-carboxamide]
DCAF1_C1113
  reactivity with DCAF1_C1113: weaker enantioselective interaction

## CCC(C)(C)C(=O)C(=O)N1CCCC[C@H]1C(=O)O[C@H](CCc1ccc(OC)c(OC)c1)c1cccc(N)c1 [SLF, reference compound]
HA-FKBP12; 20 μM, 1 h pre-treatment
  effect on YT41R and YT47R-mediated degradation of HA-FKBP12: blocked

## C=CC(=O)C1C[C@@H](c2ccc(C(=O)NCCOCCOCCNC(=O)COc3cccc([C@@H](CCc4ccc(OC)c(OC)c4)OC(=O)[C@@H]4CCCCN4C(=O)C(=O)C(C)(C)CC)c3)cc2)[C@H]1C(=O)Nc1cccc2cccnc12 (stereo partly shown) [YT41S]
[1]; 2 h, then MY-11B 25 μM 1 h, YT41S and YT47S at single concentration 100 μM
  inhibition of MY-11B probe reactivity with recombinant DCAF1: did not impair
